Strand notation (5' to 3'): a small letter for the sugar, then the base; units joined by * are phosphorothioate-linked, units joined directly phosphodiester-linked; [ ] holds rarer units or linkages, { } end groups; capitals alone tell only the bases. e = 2'-O-(2-methoxyethyl) (MOE); [5mC] = 5-methylcytosine; d = 2'-deoxy (DNA)
Tests used:
rat DGAT2 mRNA = test: Dose-dependent inhibition of DGAT2 in A10 cells (Tables 82, 83); assay type: cell-based
Procedure: Additional short antisense compounds targeted to DGAT2 mRNA were tested in vitro in a dose-response experiment. A10 cells were prepared as described above and treated with 6.25, 12.5, 25.0, 50.0, 100.0, and 200.0 nM short antisense compounds to determine if DGAT2 inhibition occurs in a dose-dependent manner. […] Results are presented as percent inhibition, relative to untreated control cells.
Additional short antisense compounds targeted to DGAT2 mRNA were tested in vitro. A10 cells were prepared as described above and treated with 0.62, 1.85, 5.56, 16.67, 50.0, and 150.0 nM short antisense compounds to determine if DGAT2 inhibition occurs in a dose-dependent manner. DGAT2 mRNA was measured using quantitative real-time PCR, as described herein. […] Results are presented as percent inhibition of rat DGAT2, relative to untreated control cells.

DGAT2 mRNA = test: Antisense inhibition of DGAT2 in A10 cells, 75 nM (Table 81); assay type: cell-based, rat; settings: approximately 24 hours
Procedure: Short antisense compounds targeted to a DGAT2 nucleic acid were tested for their effects on DGAT2 mRNA in vitro. Cultured A10 cells in a 96-well plate were treated with 75 nM of short antisense compound. After a treatment period of approximately 24 hours, RNA was isolated from the cells and DGAT2 mRNA levels were measured by quantitative real-time PCR, as described herein. DGAT2 mRNA levels were adjusted according to total RNA content as measured by RIBOGREEN®. Results are presented as percent inhibition of DGAT2, relative to untreated control cells in Table 81.

[1] = ALT & AST levels and toxic effects, GCGR study (Table 32); assay type: in vivo, mouse; settings: C57/BL6 mice, pre-treatment bleed
Procedure: (§1) Eight-week old male C57/BL6 mice (Jackson Laboratory, Bar Harbor, Me.) were administered a single dose of GCGR oligonucleotide by intraperitoneal injection at a concentration of […]. Each dose group consisted of four animals. Shown in Table 31 are the sequences, motifs and conjugates of the GCGR antisense compounds used in this study. Bolded residues indicate 2′-O-methoxyethyl (2′-MOE) moieties. All compounds comprise phosphorothioate internucleoside linkages throughout and each cytosine is replaced with 5-methylcytosine. ISIS 386626, ISIS 386627 and ISIS 386628 further comprise a C16 conjugate group attached to the 2′-O position of the sugar via a diamide linkage (2′-OCH2C(═O)N(H)(CH2)4N(H)C(═O)—(CH2)15CH3). GCGR antisense compounds target published GCGR sequences, including Genbank® Accession No. BC031885.1 (SEQ ID NO: 7).
(§2) Mice were sacrificed 48 hours following injection to determine serum transaminase levels (Table 32); liver, white adipose tissue (WAT), spleen and kidney weight (Table 33); cholesterol, triglyceride and glucose levels (Table 34); GCGR mRNA levels (Tables 35-41); and full-length and total oligonucleotide concentration in liver and kidney (Table 42). Endpoints were assessed using methods described herein and well known to those of ordinary skill in the art. Data is included from a pre-treatment bleed (Pre-Bleed) and post-treatment bleed (Post-Bleed).

[2] = Organ weights: liver, WAT, spleen, kidney, GCGR study (Table 33); assay type: in vivo, mouse; settings: 48 h
Procedure: as §1, §2

GCGR mRNA = GCGR mRNA levels in liver, C57/BL6 mice, single i.p. dose (Tables 35-41); assay type: in vivo, mouse
Procedure: Prior to quantitative PCR analysis, primer-probe sets specific to the target gene being measured were evaluated for their ability to be “multiplexed” with a GAPDH amplification reaction. After isolation the RNA is subjected to sequential reverse transcriptase (RT) reaction and real-time PCR, both of which are performed in the same well. RT and PCR reagents were obtained from Invitrogen Life Technologies (Carlsbad, Calif.). […] The RT reaction was carried out by incubation for 30 minutes at 48° C. Following a 10 minute incubation at 95° C. to activate the PLATIN 9M® Taq, 40 cycles of a two-step PCR protocol were carried out: 95° C. for 15 seconds (denaturation) followed by 60° C. for 1.5 minutes (annealing/extension).
170 μL of RiboGreen® working reagent (RiboGreen® reagent diluted 1:350 in 10 mM Tris-HCl, 1 mM EDTA, pH 7.5) was pipetted into a 96-well plate containing 30 μL purified cellular RNA. The plate was read in a CytoFluor® 4000 (PE Applied Biosystems) with excitation at 485 nm and emission at 530 nm.
as §1, §2
To determine whether the phenotypic changes shown above correlated with a decrease in GCGR mRNA, treated animals were evaluated for levels of target mRNA in liver by real time PCR according to methods described herein. Tables 35 to 41 show results from direct comparisons of the antisense compounds targeting GCGR nucleic acid for their effect on target expression. Results are expressed as percent of saline control.

[3] = Triglyceride, cholesterol and glucose levels, pre-bleed and post-bleed, GCGR study (Table 34); assay type: in vivo, mouse; set-up: Triglyceride (TRIG) Pre-Bleed / Triglyceride (TRIG) Post-Bleed / Cholesterol (CHOL) Pre-Bleed / Cholesterol (CHOL) Post-Bleed / Glucose Pre-Bleed / Glucose Post-Bleed: unit not given here
Procedure: as §1, §2

mouse SGLT2 mRNA = test: Mouse SGLT2 mRNA in kidney, additional 1-10-1 and 2-8-2 MOE gapmers (Table 68); assay type: in vivo; settings: Balb/c mouse kidney
Procedure: 1-10-1 and 2-8-2 MOE gapmer short antisense compounds were designed to target different regions of the mouse SGLT2 RNA but have complementarity across species. […] All cytidine residues are 5-methylcytidines.
The short antisense compounds were analyzed for their effect on mouse SGLT2 mRNA levels in vivo. Data was taken from three experiments in which male 6-week old Balb/c mice were dosed twice per week for three weeks with 0.5, 0.1, or 0.02 umol/kg of either a 1-10-1 or 2-8-2 MOE gapmer given by intraperitoneal injection. Mice were sacrificed 48 hours following last administration and evaluated for SGLT2 levels in kidney. Target levels were determined by RT, real-time PCR as described by other examples herein. PCR results were normalized to an internal ISIS control.

[4] = 6.25 mg/kg group, pre-treatment bleed
[5] = 6.25 mg/kg single i.p., post-treatment bleed
[6] = 12.5 mg/kg group, pre-treatment bleed
[7] = 12.5 mg/kg single i.p., post-treatment bleed
[8] = 25 mg/kg group, pre-treatment bleed
[9] = 25 mg/kg single i.p., post-treatment bleed
[10] = 50 mg/kg group, pre-treatment bleed
[11] = 50 mg/kg single i.p., post-treatment bleed

372508 (antisense eA*eG*eT*dT*d[5mC]*d[5mC]*dT*dG*dG*dT*dG*dG*dT*e[5mC]*eA*eG) [compound 372508]
percent inhibition of rat DGAT2 (rat DGAT2 mRNA; 0.62 nM (Table 83)): 0% | percent inhibition of rat DGAT2 (rat DGAT2 mRNA; 1.85 nM (Table 83)): 0% | percent inhibition of rat DGAT2 (rat DGAT2 mRNA; 5.56 nM (Table 83)): 6% | percent inhibition of rat DGAT2 (rat DGAT2 mRNA; 16.67 nM (Table 83)): 14% | percent inhibition of rat DGAT2 (rat DGAT2 mRNA; 50 nM (Table 83)): 39% | percent inhibition of rat DGAT2 (rat DGAT2 mRNA; 150 nM (Table 83)): 71% | % Control (DGAT2 mRNA): 35 % Control

372516 (antisense eT*eA*e[5mC]*dA*dG*dA*dA*dG*dG*d[5mC]*dA*d[5mC]*d[5mC]*e[5mC]*eA*eG) [compound 372516]
percent inhibition of rat DGAT2 (rat DGAT2 mRNA; 0.62 nM (Table 83)): 1% | percent inhibition of rat DGAT2 (rat DGAT2 mRNA; 1.85 nM (Table 83)): 10% | percent inhibition of rat DGAT2 (rat DGAT2 mRNA; 5.56 nM (Table 83)): 0% | percent inhibition of rat DGAT2 (rat DGAT2 mRNA; 16.67 nM (Table 83)): 4% | percent inhibition of rat DGAT2 (rat DGAT2 mRNA; 50 nM (Table 83)): 35% | percent inhibition of rat DGAT2 (rat DGAT2 mRNA; 150 nM (Table 83)): 81% | % Control (DGAT2 mRNA): 27 % Control

372569 (antisense e[5mC]*eA*dT*dG*dA*dG*dG*dA*dT*dG*dA*d[5mC]*eA*e[5mC]) [compound 372569]
% Control (DGAT2 mRNA): 104 % Control

386628 (antisense TGTCTTGCTGCTTT; chemistry not fully specified) [compound 386628]
ALT Pre-Bleed ([1]; dose group 6.25 mg/kg): 22 IU/L | AST Pre-Bleed ([1]; dose group 6.25 mg/kg): 40 IU/L | ALT Pre-Bleed ([1]; dose group 12.5 mg/kg): 28 IU/L | AST Pre-Bleed ([1]; dose group 12.5 mg/kg): 42 IU/L | ALT Pre-Bleed ([1]; dose group 25 mg/kg): 24 IU/L | AST Pre-Bleed ([1]; dose group 25 mg/kg): 40 IU/L | ALT Pre-Bleed ([1]; dose group 50 mg/kg): 28 IU/L | AST Pre-Bleed ([1]; dose group 50 mg/kg): 44 IU/L | Organ Weights: Kidney ([2]; 6.25 mg/kg single i.p.): 102 % saline control | Organ Weights: Liver ([2]; 6.25 mg/kg single i.p.): 98 % saline control | Organ Weights: Spleen ([2]; 6.25 mg/kg single i.p.): 151 % saline control | Organ Weights: WAT ([2]; 6.25 mg/kg single i.p.): 106 % saline control | Organ Weights: Kidney ([2]; 12.5 mg/kg single i.p.): 99 % saline control | Organ Weights: Liver ([2]; 12.5 mg/kg single i.p.): 101 % saline control | Organ Weights: Spleen ([2]; 12.5 mg/kg single i.p.): 114 % saline control | Organ Weights: WAT ([2]; 12.5 mg/kg single i.p.): 111 % saline control | Organ Weights: Kidney ([2]; 25 mg/kg single i.p.): 109 % saline control | Organ Weights: Liver ([2]; 25 mg/kg single i.p.): 102 % saline control | Organ Weights: Spleen ([2]; 25 mg/kg single i.p.): 113 % saline control | Organ Weights: WAT ([2]; 25 mg/kg single i.p.): 97 % saline control | Organ Weights: Kidney ([2]; 50 mg/kg single i.p.): 99 % saline control | Organ Weights: Liver ([2]; 50 mg/kg single i.p.): 104 % saline control | Organ Weights: Spleen ([2]; 50 mg/kg single i.p.): 126 % saline control | Organ Weights: WAT ([2]; 50 mg/kg single i.p.): 100 % saline control | GCGR mRNA levels (GCGR mRNA; 6.25 mg/kg, Table 38 comparison ISIS 148364 & ISIS 386628): 77% of saline control | GCGR mRNA levels (GCGR mRNA; 6.25 mg/kg, Table 41 comparison ISIS 386628 & ISIS 386594): 97% of saline control | GCGR mRNA levels (GCGR mRNA; 12.5 mg/kg, Table 38 comparison ISIS 148364 & ISIS 386628): 53% of saline control | GCGR mRNA levels (GCGR mRNA; 12.5 mg/kg, Table 41 comparison ISIS 386628 & ISIS 386594): 38% of saline control | GCGR mRNA levels (GCGR mRNA; 25 mg/kg, Table 38 comparison ISIS 148364 & ISIS 386628): 18% of saline control | GCGR mRNA levels (GCGR mRNA; 25 mg/kg, Table 41 comparison ISIS 386628 & ISIS 386594): 13% of saline control | GCGR mRNA levels (GCGR mRNA; 50 mg/kg, Table 38 comparison ISIS 148364 & ISIS 386628): 2% of saline control | GCGR mRNA levels (GCGR mRNA; 50 mg/kg, Table 41 comparison ISIS 386628 & ISIS 386594): 4% of saline control | Cholesterol (CHOL) Pre-Bleed [3, 4]: 83 | Triglyceride (TRIG) Pre-Bleed [3, 4]: 117 | Cholesterol (CHOL) Post-Bleed [3, 5]: 85 | Triglyceride (TRIG) Post-Bleed [3, 5]: 121 | Cholesterol (CHOL) Pre-Bleed [3, 6]: 90 | Triglyceride (TRIG) Pre-Bleed [3, 6]: 90 | Cholesterol (CHOL) Post-Bleed [3, 7]: 94 | Glucose Post-Bleed [3, 7]: 240 | Triglyceride (TRIG) Post-Bleed [3, 7]: 123 | Cholesterol (CHOL) Pre-Bleed [3, 8]: 84 | Glucose Pre-Bleed [3, 8]: 210 | Triglyceride (TRIG) Pre-Bleed [3, 8]: 102 | Cholesterol (CHOL) Post-Bleed [3, 9]: 85 | Triglyceride (TRIG) Post-Bleed [3, 9]: 129 | Cholesterol (CHOL) Pre-Bleed [3, 10]: 88 | Triglyceride (TRIG) Pre-Bleed [3, 10]: 102 | Cholesterol (CHOL) Post-Bleed [3, 11]: 95 | Triglyceride (TRIG) Post-Bleed [3, 11]: 98

ISIS 388627 (eG*e[5mC]*dA*d[5mC]*dA*d[5mC]*dA*dG*d[5mC]*dT*eG*e[5mC])
% change in SGLT2 expression relative to saline (mouse SGLT2 mRNA; 0.02 umol/kg i.p. twice per week for three weeks): −38% | % change in SGLT2 expression relative to saline (mouse SGLT2 mRNA; 0.1 umol/kg i.p. twice per week for three weeks): −50% | % change in SGLT2 expression relative to saline (mouse SGLT2 mRNA; 0.5 umol/kg i.p. twice per week for three weeks): −65%
